Experimental data as given in patent US9694011B2, “Substituted pyrazolopyrimidines as kinases inhibitors” (JIANGSU MEDOLUTION LTD, priority 2013, dated 2017).

Assays:
[1] = test system: cancer cell line NCI-H1975; test: NCI-H1975 cell proliferation assay (MTT); format: cell-based; settings: Homo sapiens, NCI-H1975 cells, 72 hours treatment
Protocol: A representative number of compounds were assayed against cancer cell line NCI-H1975 using the cell proliferation assay:
1. 5×10^3 cells per well in 100 μl of medium were seeded in 96-well plate, here the medium contained 5% FBS
2. 24 hours later, 100 μl fresh medium was added with various concentrations of compounds into each well, while the medium here was free of FBS
3. After the cells were treated with compounds for 72 hours, 20 μl MTT (5 mg/ml) was added into each well, and then the assay plate was incubated at 37° C. for 4 more hours.
4. The assay plate was centrifuged at 800 g for 10 min. The medium was aspirated, 150 μl DMSO was added into each well. The plate was gently shaked for 10 min.
5. The absorbance at 570 nm was measured on the plate reader.

[2] = molecular target: EGFR (L858R,T790M) (Homo sapiens (Human), UniProt P00533, L858R/T790M); test: in vitro kinase binding assay (Kd, phage-tagged kinase, qPCR)
Protocol: (§1) An in vitro assay which determines the ability of a test compound to inhibit EGFR (L858R), EGFR (L858R,T790M) and BTK kinases.
(§2) Kinase-tagged T7 phage strains were prepared in an E. coli host derived from the BL21 strain. E. coli were grown to log-phase and infected with T7 phage and incubated with shaking at 32° C. until lysis. The lysates were centrifuged and filtered to remove cell debris. The remaining kinases were produced in HEK-293 cells and subsequently tagged with DNA for qPCR detection. Streptavidin-coated magnetic beads were treated with biotinylated small molecule ligands for 30 minutes at room temperature to generate affinity resins for kinase assays. The liganded beads were blocked with excess biotin and washed with blocking buffer (SeaBlock (Pierce), 1% BSA, 0.05% Tween 20, 1 mM DTT) to remove unbound ligand and to reduce non-specific binding. Binding reactions were assembled by combining kinases, liganded affinity beads, and test compounds in 1× binding buffer (20% SeaBlock, 0.17×PBS, 0.05% Tween 20, 6 mM DTT). All reactions were performed in polystyrene 96-well plates in a final volume of 0.135 ml. The assay plates were incubated at room temperature with shaking for 1 hour and the affinity beads were washed with wash buffer (1×PBS, 0.05% Tween 20). The beads were then re-suspended in elution buffer (lx PBS, 0.05% Tween 20, 0.5 μM non-biotinylated affinity ligand) and incubated at room temperature with shaking for 30 minutes. The kinase concentration in the eluates was measured by qPCR.
(§3) An 11-point 3-fold serial dilution of each test compound was prepared in 100% DMSO at 100× final test concentration and subsequently diluted to 1× in the assay (final DMSO concentration=1%). Kds were determined using a compound top concentration=10,000 nM. If the initial Kd determined was <0.5 nM (the lowest concentration tested), the measurement was repeated with a serial dilution starting at a lower top concentration.
(§4) Binding constants (Kds) were calculated with a standard dose-response curve using the Hill equation: Response=Background+(Signal−Background)/(1+(Kd^Hill Slope/Dose^Hill Slope)). The Hill Slope was set to −1. Curves were fitted using a non-linear least square fit with the Levenberg-Marquardt algorithm.

[3] = molecular target: BTK (Homo sapiens (Human), UniProt Q06187); test: as above
Protocol: as §1, §2, §3, §4

[4] = molecular target: EGFR (L858R) (Homo sapiens (Human), UniProt P00533, L858R); test: as above
Protocol: as §1, §2, §3, §4

Chain of BTK (Q06187 whole entry): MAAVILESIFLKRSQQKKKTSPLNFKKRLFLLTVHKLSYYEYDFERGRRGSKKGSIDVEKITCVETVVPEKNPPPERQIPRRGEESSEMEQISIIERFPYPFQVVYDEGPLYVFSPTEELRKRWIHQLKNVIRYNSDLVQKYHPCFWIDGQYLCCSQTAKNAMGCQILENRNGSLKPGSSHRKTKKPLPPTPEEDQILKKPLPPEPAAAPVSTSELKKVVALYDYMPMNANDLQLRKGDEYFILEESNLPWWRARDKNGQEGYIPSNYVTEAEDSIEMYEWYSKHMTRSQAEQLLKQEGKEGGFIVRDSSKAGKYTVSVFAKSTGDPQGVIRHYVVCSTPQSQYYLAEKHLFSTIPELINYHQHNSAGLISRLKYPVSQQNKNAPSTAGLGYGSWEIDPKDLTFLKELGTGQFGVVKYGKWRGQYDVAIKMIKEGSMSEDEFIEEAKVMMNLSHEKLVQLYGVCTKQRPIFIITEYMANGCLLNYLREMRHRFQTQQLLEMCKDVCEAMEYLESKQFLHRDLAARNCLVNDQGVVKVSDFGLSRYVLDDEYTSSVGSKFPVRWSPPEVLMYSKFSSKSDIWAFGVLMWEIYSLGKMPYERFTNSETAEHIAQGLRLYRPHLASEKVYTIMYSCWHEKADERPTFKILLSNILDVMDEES
Chain of EGFR (L858R,T790M) (P00533 25-1210 T790M/L858R): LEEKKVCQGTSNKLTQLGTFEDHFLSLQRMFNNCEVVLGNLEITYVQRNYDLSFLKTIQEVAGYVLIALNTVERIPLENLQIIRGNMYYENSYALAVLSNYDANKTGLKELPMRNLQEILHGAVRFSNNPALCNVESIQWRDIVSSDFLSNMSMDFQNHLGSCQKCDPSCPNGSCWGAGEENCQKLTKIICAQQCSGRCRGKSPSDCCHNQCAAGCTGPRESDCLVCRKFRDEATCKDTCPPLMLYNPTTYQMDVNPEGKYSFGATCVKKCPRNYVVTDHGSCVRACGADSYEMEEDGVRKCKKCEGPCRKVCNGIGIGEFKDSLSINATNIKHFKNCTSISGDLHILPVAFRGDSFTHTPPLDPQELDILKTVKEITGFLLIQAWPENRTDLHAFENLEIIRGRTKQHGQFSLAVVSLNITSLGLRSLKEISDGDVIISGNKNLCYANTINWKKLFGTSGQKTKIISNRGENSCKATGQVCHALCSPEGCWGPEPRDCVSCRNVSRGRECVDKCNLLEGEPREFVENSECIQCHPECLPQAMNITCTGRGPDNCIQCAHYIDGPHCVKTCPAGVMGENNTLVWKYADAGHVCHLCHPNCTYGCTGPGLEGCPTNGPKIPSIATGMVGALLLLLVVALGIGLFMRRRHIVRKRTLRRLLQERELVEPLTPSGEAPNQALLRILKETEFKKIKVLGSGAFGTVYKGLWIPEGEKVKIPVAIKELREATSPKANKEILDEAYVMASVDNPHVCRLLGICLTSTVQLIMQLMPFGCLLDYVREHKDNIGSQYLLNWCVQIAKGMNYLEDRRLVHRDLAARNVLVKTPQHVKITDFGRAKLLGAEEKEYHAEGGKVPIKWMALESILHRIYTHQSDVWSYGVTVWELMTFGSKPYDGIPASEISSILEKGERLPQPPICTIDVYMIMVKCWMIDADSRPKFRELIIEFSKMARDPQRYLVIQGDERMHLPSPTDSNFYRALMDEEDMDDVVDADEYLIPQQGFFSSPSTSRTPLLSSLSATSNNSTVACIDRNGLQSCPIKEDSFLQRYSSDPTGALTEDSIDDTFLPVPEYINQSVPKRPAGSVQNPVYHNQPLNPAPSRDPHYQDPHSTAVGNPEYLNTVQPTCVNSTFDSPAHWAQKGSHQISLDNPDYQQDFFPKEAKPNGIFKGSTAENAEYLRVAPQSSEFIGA
Chain of EGFR (L858R) (P00533 25-1210 L858R): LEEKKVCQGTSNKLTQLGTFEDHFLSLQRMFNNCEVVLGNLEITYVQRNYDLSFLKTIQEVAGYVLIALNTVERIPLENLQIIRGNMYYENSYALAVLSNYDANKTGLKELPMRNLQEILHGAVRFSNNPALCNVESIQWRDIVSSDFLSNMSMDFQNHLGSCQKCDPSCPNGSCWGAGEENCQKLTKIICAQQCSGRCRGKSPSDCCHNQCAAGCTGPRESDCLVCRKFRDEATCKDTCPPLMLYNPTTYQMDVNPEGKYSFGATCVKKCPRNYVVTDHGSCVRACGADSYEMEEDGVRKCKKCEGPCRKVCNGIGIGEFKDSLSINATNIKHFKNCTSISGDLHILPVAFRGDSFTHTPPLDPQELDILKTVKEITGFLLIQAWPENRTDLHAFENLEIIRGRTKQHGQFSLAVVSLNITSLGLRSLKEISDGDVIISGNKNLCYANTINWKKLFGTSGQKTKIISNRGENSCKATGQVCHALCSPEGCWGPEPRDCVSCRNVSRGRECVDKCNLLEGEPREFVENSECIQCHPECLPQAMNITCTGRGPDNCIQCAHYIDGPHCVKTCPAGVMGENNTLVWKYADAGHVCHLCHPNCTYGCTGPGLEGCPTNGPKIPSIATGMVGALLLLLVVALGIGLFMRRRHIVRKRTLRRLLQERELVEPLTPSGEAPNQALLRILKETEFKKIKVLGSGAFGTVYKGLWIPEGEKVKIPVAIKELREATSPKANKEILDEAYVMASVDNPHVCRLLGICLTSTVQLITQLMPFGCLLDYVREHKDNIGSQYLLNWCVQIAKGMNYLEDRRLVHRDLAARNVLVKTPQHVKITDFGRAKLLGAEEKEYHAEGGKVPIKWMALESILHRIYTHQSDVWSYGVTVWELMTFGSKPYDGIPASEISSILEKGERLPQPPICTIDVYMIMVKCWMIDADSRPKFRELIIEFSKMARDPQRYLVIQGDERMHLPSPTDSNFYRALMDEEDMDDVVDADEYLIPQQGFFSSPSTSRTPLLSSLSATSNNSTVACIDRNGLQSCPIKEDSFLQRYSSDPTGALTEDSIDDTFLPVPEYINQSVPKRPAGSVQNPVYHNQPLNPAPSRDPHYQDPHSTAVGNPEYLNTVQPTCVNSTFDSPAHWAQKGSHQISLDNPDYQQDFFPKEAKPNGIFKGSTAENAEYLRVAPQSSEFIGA

| Compound | IC50 [1] [nM] | Kd [2] [nM] | Kd [3] [nM] | Kd [4] [nM] |
| --- | --- | --- | --- | --- |
| C=CC(=O)N1CCC[C@@H](n2nc(-c3ccc(Oc4ccccc4)c(Cl)c3)c3c(N)ncnc32)C1 [Compound 18, (R)-1-(3-(4-amino-3-(3-chloro-4-phenoxyphenyl)-1H-pyrazolo[3,4-d]pyrimidin-1-yl)piperidin-1-yl)prop-2-en-1-one] | 494 | 9.3 | < 10 | 6.3 |
| C=CC(=O)N1CCC[C@@H](n2nc(-c3ccc(Oc4ccccc4)cc3)c3c(N)ncnc32)C1 [Ibrutinib, reference compound] | > 2000 |  |  |  |
| C=CC(=O)N1CCC[C@@H](n2nc(-c3ccc(Oc4ccc(F)cc4)cc3)c3c(N)ncnc32)C1 [Compound 17, (R)-1-(3-(4-amino-3-(4-(4-fluorophenoxy)phenyl)-1H-pyrazolo[3,4-d]pyrimidin-1-yl)piperidin-1-yl)prop-2-en-1-one] |  | 270 | < 10 | 54 |
